pIC50: −log10 of the molar value.
Key:
[1] = target: T1, Sigma non-opioid intracellular receptor 1 (Rattus norvegicus, UniProt Q9R0C9); test: Inhibition of [3H]- N-allylnormetazocine ([3H]NANM) binding to sigma receptor
[2] = target: Glutamate receptor ionotropic, NMDA 2C (Rattus norvegicus) (UniProt Q00961); test: (§1) Compound was tested for induction of phencyclidine (PCP) like ataxia behavior; assay type: functional
[3] = target: Glutamate receptor ionotropic, NMDA 2C (Rattus norvegicus) (UniProt Q00961); test: (§2) Compound was tested for induction of phencyclidine (PCP) like stereotyped behavior; assay type: functional
[4] = target: T2, Glutamate receptor ionotropic, NMDA 2C (Rattus norvegicus, UniProt Q00961); test: Inhibition of [3H]1-[1-(2-thienyl) piperidine ([3H]TCP) binding to PCP receptor
Rattus norvegicus [5] = organism: Rattus norvegicus; test: as §2; assay type: functional
Rattus norvegicus [6] = organism: Rattus norvegicus; test: as §1; assay type: functional
[7] = target: T1, Sigma non-opioid intracellular receptor 1; test: Inhibition of [3H]- N-allylnormetazocine ([3H]-NANM) binding to sigma receptors; NI = No detectable inhibition of binding at 30 uM
[8] = target: T2, Glutamate receptor ionotropic, NMDA 2C; test: Inhibition of [3H]1-[1-(2-thienyl) piperidine ([3H]TCP) binding to phencyclidine receptor; NI = No detectable inhibition of binding at 30 uM
[9] = target: T2, Glutamate receptor ionotropic, NMDA 2C; test: Inhibition of [3H]1-[1-(2-thienyl) piperidine ([3H]TCP) binding to PCP receptor; NI = No detectable inhibition of binding at 30 uM

T2 sequence (Q00961 whole entry): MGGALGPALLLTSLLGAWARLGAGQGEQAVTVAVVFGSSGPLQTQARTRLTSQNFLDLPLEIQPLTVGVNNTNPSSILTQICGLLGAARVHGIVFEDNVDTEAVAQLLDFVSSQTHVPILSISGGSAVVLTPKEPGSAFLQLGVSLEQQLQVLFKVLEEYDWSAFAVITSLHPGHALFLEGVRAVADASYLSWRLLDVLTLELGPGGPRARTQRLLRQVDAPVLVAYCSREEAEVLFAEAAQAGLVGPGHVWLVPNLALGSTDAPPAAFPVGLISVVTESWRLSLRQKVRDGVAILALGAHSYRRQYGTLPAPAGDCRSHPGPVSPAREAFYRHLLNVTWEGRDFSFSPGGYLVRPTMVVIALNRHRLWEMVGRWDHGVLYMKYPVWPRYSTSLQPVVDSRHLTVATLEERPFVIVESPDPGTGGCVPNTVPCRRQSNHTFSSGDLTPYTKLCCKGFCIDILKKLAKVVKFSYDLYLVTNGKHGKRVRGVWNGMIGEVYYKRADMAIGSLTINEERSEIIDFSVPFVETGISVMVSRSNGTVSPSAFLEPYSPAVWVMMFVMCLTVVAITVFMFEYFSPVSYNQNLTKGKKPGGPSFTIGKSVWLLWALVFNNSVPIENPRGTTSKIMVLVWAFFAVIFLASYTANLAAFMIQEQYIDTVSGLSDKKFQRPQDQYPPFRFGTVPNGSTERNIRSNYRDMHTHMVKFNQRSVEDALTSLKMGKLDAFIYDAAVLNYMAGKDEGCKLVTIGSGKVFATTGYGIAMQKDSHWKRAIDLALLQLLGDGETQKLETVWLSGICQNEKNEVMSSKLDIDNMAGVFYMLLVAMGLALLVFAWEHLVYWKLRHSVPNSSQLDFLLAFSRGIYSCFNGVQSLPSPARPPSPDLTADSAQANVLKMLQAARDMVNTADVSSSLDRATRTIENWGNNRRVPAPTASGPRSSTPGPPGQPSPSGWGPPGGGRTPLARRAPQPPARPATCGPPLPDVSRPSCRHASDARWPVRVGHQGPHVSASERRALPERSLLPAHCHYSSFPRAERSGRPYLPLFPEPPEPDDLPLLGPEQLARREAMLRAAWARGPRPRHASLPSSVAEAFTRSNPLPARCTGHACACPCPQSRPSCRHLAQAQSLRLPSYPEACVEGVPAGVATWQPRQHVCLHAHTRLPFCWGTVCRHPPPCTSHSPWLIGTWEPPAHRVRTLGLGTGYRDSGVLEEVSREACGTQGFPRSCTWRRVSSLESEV
T1 sequence (Q9R0C9 whole entry): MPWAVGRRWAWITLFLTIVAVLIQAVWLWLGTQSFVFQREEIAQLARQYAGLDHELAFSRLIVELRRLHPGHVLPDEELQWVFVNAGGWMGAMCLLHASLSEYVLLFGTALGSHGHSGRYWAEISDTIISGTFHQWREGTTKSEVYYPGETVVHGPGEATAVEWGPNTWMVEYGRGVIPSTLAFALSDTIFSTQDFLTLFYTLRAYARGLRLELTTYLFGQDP
Chain of Glutamate receptor ionotropic, NMDA 2C (Rattus norvegicus) (Q00961 20-1237 limits assumed): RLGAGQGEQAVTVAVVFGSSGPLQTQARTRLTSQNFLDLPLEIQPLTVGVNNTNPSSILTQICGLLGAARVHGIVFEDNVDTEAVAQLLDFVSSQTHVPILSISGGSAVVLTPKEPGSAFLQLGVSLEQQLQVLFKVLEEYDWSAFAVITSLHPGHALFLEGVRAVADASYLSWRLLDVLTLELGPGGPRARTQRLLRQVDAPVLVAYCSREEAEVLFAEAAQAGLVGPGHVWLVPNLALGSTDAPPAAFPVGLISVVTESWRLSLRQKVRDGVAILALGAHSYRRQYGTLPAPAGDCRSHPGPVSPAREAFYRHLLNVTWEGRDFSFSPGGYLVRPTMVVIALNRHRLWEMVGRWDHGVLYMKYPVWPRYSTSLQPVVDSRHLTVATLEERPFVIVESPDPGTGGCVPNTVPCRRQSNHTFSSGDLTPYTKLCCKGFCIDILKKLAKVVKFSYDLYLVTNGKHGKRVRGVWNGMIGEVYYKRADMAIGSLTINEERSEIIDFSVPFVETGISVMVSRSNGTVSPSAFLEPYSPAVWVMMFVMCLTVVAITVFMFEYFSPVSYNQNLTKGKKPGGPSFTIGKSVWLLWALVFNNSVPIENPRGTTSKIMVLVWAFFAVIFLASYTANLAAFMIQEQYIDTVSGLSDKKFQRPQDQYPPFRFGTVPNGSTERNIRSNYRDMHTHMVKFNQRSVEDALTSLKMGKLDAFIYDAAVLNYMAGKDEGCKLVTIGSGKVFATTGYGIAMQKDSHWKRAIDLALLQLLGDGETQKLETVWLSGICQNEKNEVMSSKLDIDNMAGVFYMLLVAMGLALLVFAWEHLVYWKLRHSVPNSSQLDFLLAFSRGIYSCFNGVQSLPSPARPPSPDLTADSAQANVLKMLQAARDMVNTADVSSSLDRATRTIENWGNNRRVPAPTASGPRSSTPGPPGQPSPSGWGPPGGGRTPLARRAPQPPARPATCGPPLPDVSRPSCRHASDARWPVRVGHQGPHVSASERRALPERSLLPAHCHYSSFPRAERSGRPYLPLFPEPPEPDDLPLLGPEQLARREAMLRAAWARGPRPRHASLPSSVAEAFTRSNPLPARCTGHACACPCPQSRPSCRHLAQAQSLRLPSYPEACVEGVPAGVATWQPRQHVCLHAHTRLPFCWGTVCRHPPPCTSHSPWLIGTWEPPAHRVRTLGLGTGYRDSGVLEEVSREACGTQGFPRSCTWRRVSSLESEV

Compound | pIC50 [1] | other results
CN1CCc2ccccc2C1 | 5.57 | 
c1ccc(-c2cccc3c2CNCC3)cc1 | 5.57 | ED50 [2]: 44 mg/kg; ED50 [3]: 28 mg/kg
C=CCN1C(C)Cc2ccccc2C1C (stereo unspecified) | 5.80 | 
c1ccc(CC2NCCc3ccccc32)cc1 (stereo unspecified) | 6.37 | ED50 [2]: 42 mg/kg; ED50 [3]: 26 mg/kg
c1csc(C2NCCc3ccccc32)c1 (stereo unspecified) | 5.42 | pIC50 [4]: 5.12; ED50 (Rattus norvegicus [5]): 54 mg/kg
CC(C)C1c2sccc2CCN1C (stereo unspecified) | 5.11 | pIC50 [4]: 4.77
c1ccc(C2NCCc3ccsc32)cc1 (stereo unspecified) | 5.20 | pIC50 [4]: 5.06; ED50 (Rattus norvegicus [6]): > 50 mg/kg; ED50 (Rattus norvegicus [5]): > 50 mg/kg
c1ccc2c(c1)CCNC21CCCCC1 |  | IC50 [7]: Not Active; IC50 [8]: Not Active
Clc1ccc(C2NCCc3ccccc32)cc1 (stereo unspecified) | 5.47 | 
C=CCN1CC[C@]2(C)c3ccccc3CC1[C@@H]2C | 7.30 | 
CC(C)C1NCCc2ccccc21 (stereo unspecified) | 5.60 | 
c1ccc(C2(N3CCCCC3)CCCCC2)cc1 [PHENCYCLIDINE] | 6.28 | ED50 [2]: 6.5 mg/kg; ED50 [3]: 4.7 mg/kg
c1ccc(CN2CCc3ccccc3C2)cc1 | 5.11 | IC50 [8]: Not Active
CCN1CCc2ccccc2C1c1ccccc1 (stereo unspecified) | 5.89 | 
C=CCN1CCc2ccsc2C1C(C)C (stereo unspecified) | 5.30 | pIC50 [4]: 5.07
Fc1ccc(C2NCCc3ccccc32)cc1 (stereo unspecified) | 5.74 | ED50 [2]: 49 mg/kg; ED50 [3]: 38 mg/kg
CC(C)C1NCCc2ccsc21 (stereo unspecified) | 5.42 | pIC50 [4]: 4.77
CC1NCCc2ccsc21 (stereo unspecified) | 4.96 | pIC50 [4]: < 4.52
CC(C)CC1NCCc2ccccc21 (stereo unspecified) | 5.30 | 
c1ccc2c(c1)CCNC2C1CCCCC1 (stereo unspecified) | 4.96 | 

Compound | pIC50 [1] | other results
CC1Cc2ccccc2CN1C (stereo unspecified) | 5.59 | 
CN1CCc2ccccc2C1c1ccccc1 (stereo unspecified) | 5.54 | 
CC1Cc2ccccc2C(C)N1 (stereo unspecified) | 4.82 | 
c1ccc(C2NCCc3ccccc32)cc1 (stereo unspecified) |  | ED50 [2]: > 20 mg/kg; ED50 [3]: 25 mg/kg
c1ccc(C2NCc3ccccc32)cc1 (stereo unspecified) | < 4.52 | 
Cc1ccc(C2NCCc3ccccc32)cc1 (stereo unspecified) | 5.25 | 
c1ccc(C2Cc3ccccc3CN2)cc1 (stereo unspecified) | 5.59 | ED50 [2]: 18 mg/kg; ED50 [3]: 19 mg/kg
C=CCN1CCc2ccccc2C1c1ccc2ccccc2c1 (stereo unspecified) | 4.96 | IC50 [8]: Not Active
C=CCN1CCc2ccccc2C1c1ccccc1 (stereo unspecified) | 5.89 | 
C=CCN1CCc2ccccc2C1C1CCCCC1 (stereo unspecified) | 5.51 | 
C=CCN1CCc2ccsc2C1c1ccccc1 (stereo unspecified) | 4.70 | IC50 [9]: Not Active
c1ccc(C2CNCc3ccccc32)cc1 (stereo unspecified) | 5.38 | 
CC1Cc2ccccc2CN1Cc1ccccc1 (stereo unspecified) | 5.49 | 
CCOCCN1CCc2ccccc2C1c1ccccc1 (stereo unspecified) | 5.27 | pIC50 [4]: 5.09
c1ccc(C2NCCCc3ccccc32)cc1 (stereo unspecified) |  | IC50 [7]: Not Active; IC50 [8]: Not Active
c1csc(C2(N3CCCCC3)CCCCC2)c1 [TENOCYCLIDINE] | 6.62 | 
COc1ccc(C2NCCc3ccccc32)cc1 (stereo unspecified) | 5.66 | pIC50 [4]: 5.60
c1ccc2c(c1)CCNC2c1ccc2ccccc2c1 (stereo unspecified) | 5.00 | 
CCN1CCc2ccsc2C1C(C)C (stereo unspecified) |  | pIC50 [4]: 4.92; IC50 [7]: Not Active
COc1ccccc1-c1cccc2c1CNCC2 | 5.74 | pIC50 [4]: 6.05; ED50 (Rattus norvegicus [6]): 22 mg/kg; ED50 (Rattus norvegicus [5]): 20 mg/kg

— ChEMBL document CHEMBL1124619, “Phencyclidine-like effects of tetrahydroisoquinolines and related compounds” (J Med Chem, 1989)
